Earlier results on 122 compounds are cited in the CATMoS acute toxicity set (Mansouri et al. 2021).

Each structure is given as a SMILES string. Where “and” joins values, the source holds several entries; their conditions need not be identical. Identical values can stand only once.

The series in a line: rat acute oral toxicity. The conditions noted are these: in vivo.
For `CCc1cccc2cc(C(O)CNC(C)(C)C)oc12` (configuration not stated), the LD50 was 750 mg/kg.

For the compound `OC1CCCc2ccccc21` (configuration not stated), the LD50 is 1620 mg/kg. Consider `CN=C1C=CC(=C(c2ccc(N(C)C)cc2)c2ccc(N(C)C)cc2)C=C1`, for which the LD50 is 413 mg/kg.

As to `CC(C)=CCC(CCN1CCCCC1)(C(N)=O)c1cccc2ccccc12` (configuration not stated), the LD50 is 57 mg/kg. For `Cc1ccc(O)c(C2CCCCC2)c1`, the LD50 is 1870 mg/kg. Consider `O=C=Nc1cccc(Cl)c1`, for which the 50% lethal dose (LD50) is 4200 mg/kg. Turning to `CNC(C)C#N` (configuration not stated), the LD50 is 48 mg/kg. With `CCCCCCCc1ccc(O)cc1O`, the LD50 is 1300 mg/kg. As to `O=C(NN=C1SCCS1)c1ccccc1`, the LD50 was 72.8 mg/kg. As to `CN1CCN(C(=O)N/N=C/c2ccc([N+](=O)[O-])o2)CC1`, the LD50 was 750 mg/kg. As to `O=C1c2ccccc2C(=O)C1C(=O)C(c1ccccc1)c1ccccc1`, the LD50 is 1.5 mg/kg. On to `CCOP(=O)(OCC)Oc1ccc([N+](=O)[O-])cc1`, for which the LD50 was 1.8 mg/kg. Consider `N#CSCSC#N`, for which the LD50 was 55 mg/kg. As to `CC(=O)O[C@H]1C[C@@H]2CC[C@@]1(C)C2(C)C`, the LD50 is 9050 mg/kg. Turning to `CC(C)(C)c1ccc(OCC(O)COc2ccc(C(=O)O)cc2)cc1` (configuration not stated), the LD50 is 2400 mg/kg. Turning to `CCCCCCOC(=O)C(O)c1ccccc1` (configuration not stated), the LD50 was 17000 mg/kg. `COP(=S)(N=C1SCCS1)OC`: the LD50 was 10 mg/kg. For the compound `CC(=O)Oc1ccc(C#N)cc1`, the LD50 is 500 mg/kg. Turning to `CCOC1CCC=CO1` (configuration not stated), the LD50 was 6160 mg/kg. Take `CCOC(C1=NCCCCN1)c1ccc(Cl)cc1` (configuration not stated): the LD50 was 370 mg/kg.

As for `C[N+]1(C)CCN(CC(O)(c2ccccc2)C2CCCCC2)CC1` (configuration not stated), the median lethal dose (LD50) was 958 mg/kg. Turning to `Oc1ccc(-c2ccccc2)cc1CN1CCCCC1`, the LD50 is 30 mg/kg. As to `CCCCN(CC)N=O`, the LD50 was 380 mg/kg. Take `CCC1(CC)C(=O)C=CN(CN2CCOCC2)C1=O`: the LD50 is 1950 mg/kg. With `CC(C)=NNC(=O)CSc1cc(Oc2ccccc2)ncn1`, the LD50 was 1080 mg/kg.

`CC(=O)C=Cc1ccccc1`: the median lethal dose (LD50) is 2030 mg/kg. For `CC[C@H]1CCCC(O[C@H]2CC[C@H](N(C)C)[C@@H](C)O2)[C@@H](C)C(=O)C2=C[C@@H]3[C@@H](C=C[C@@H]4C[C@@H](O[C@@H]5O[C@@H](C)[C@H](OC)[C@@H](OC)[C@H]5OC)C[C@@H]34)[C@@H]2CC(=O)O1` (some centres not stated), the LD50 was 3740 mg/kg. With `C#CCOc1ccccc1OC(=O)NC`, the LD50 is 60 mg/kg.

In the case of `NC(N)=O`, the LD50 was 350 mg/kg. In the case of `Cc1cccc(N2CCN(CCCCN3C(=O)CNC3=O)CC2)c1`, the median lethal dose (LD50) was 383 mg/kg. `Cc1ccccc1CN(C)N=O`: the median lethal dose (LD50) was 90 mg/kg. In the case of `CNC(=O)Oc1ccc(O)c2ccccc12`, the LD50 was 1190 mg/kg. On to `O=C1CSc2ncccc2N1`, for which the median lethal dose (LD50) is 1050 mg/kg. For `CCCCC(CC)COP(=O)(O)O` (configuration not stated), the LD50 is 3450 mg/kg. For the compound `CCC(CC)COCCOC(=O)CCCCC(=O)OCCOCC(CC)CC`, the LD50 is 3250 mg/kg. As for `CC(C=CC=C(C)C=CC(=O)C1(C)CC(O)CC1(C)C)=CC=CC=C(C)C=CC=C(C)C=CC1=C(C)CC(O)CC1(C)C` (configuration not stated), the LD50 was 11200 mg/kg. Regarding `CC(=O)CCC=C(C)C`, the LD50 was 3500 mg/kg. With `CC(N)CCN` (configuration not stated), the LD50 was 1350 mg/kg. As to `NCCCn1ccnc1`, the median lethal dose (LD50) is 1780 mg/kg. Turning to `c1cncc(CSSCc2cccnc2)c1`, the LD50 is 2150 mg/kg. As for `O=C1c2ccccc2S(=O)(=O)N1CCCCNC[C@H]1CCc2ccccc2O1`, the LD50 is 324 mg/kg. On to `C=CC(=O)OCCCOCC`, for which the LD50 is 820 mg/kg. For the compound `CCOP(=S)(OCC)SC=C(C)SC`, the 50% lethal dose (LD50) is 2.5 mg/kg.

For the compound `Cn1c(=O)c2c(ncn2CC(O)CN2CCN(CCCSc3ccccc3)CC2)n(C)c1=O` (configuration not stated), the LD50 was 2100 mg/kg. Turning to `CC(C)(C)NCC(O)COc1ccccc1C#N` (configuration not stated), the 50% lethal dose (LD50) was 639 mg/kg. In the case of `c1ccc2cnccc2c1`, the LD50 is 360 mg/kg. `CC1=CCC2C(C1)C2(C)C` (configuration not stated): the LD50 is 4800 mg/kg. For the compound `CCCC(=O)Oc1ccc(OC)cc1`, the median lethal dose (LD50) is 3400 mg/kg.

`C[C@H](NCCc1ccc(O)cc1)[C@H](O)c1ccc(O)cc1`: the LD50 was 1840 mg/kg.

As to `CC(C)N1C(=O)N(c2ccccc2)CSC1=NC(C)(C)C`, the LD50 was 2200 mg/kg. For `C/N=N/Nc1ccc(Br)cc1`, the 50% lethal dose (LD50) was 467 mg/kg. In the case of `Cc1ccc2c(c1)c(-c1ccccc1)cn2N(CCN(C)C)CCN(C)C`, the LD50 is 980 mg/kg.

Turning to `CCCN=C(C(OCC)c1ccccc1)N1CCCCCC1` (configuration not stated), the LD50 is 220 mg/kg. `CCC1(CC)C(=O)N=C(O)NC1=O`: the LD50 is 600 mg/kg. On to `CNC(=O)Nc1c(OCCN2CCCC2)c(OC)c2occc2c1OC`, for which the LD50 is 1050 mg/kg.

As to `[N-]=[N+]=NC1CCCCC1=NO` (configuration not stated), the LD50 is 1120 mg/kg.

Turning to `CN1CCN(C2=Cc3ccccc3Oc3ccc(Cl)cc32)CC1`, the LD50 was 231 mg/kg. Consider `CNC(=O)Oc1ccccc1C1OCC(C)O1` (configuration not stated), for which the LD50 is 110 mg/kg. For `OC(CCl)CNc1ccccc1NCC(O)CCl` (configuration not stated), the LD50 was 900 mg/kg.

For `CCCCCC(=O)c1ccc(N)cc1`, the LD50 was 216 mg/kg. As for `O=c1c(O)c(-c2ccc(O)c(O)c2)oc2cc(O)cc(O)c12`, the LD50 was 161 mg/kg. Regarding `Clc1sc(Cl)c(Cl)c1Cl`, the LD50 is 70 mg/kg. `CCOc1ccccc1N1CCN(CCC=Cc2ccc3[nH]c(=O)ccc3c2)CC1`: the LD50 is 500 mg/kg.

For `COC(=O)C1=C(C)NC(C)=C(C(=O)OCC(C)(C)CN(C)Cc2ccccc2)C1c1cc([N+](=O)[O-])ccc1F` (configuration not stated), the LD50 was 30.5 mg/kg.

For the compound `C=CCN(CC=C)c1ccc(OC(=O)NC)cc1`, the LD50 is 86.8 mg/kg. On to `Cc1c(O)cc([N+](=O)[O-])cc1[N+](=O)[O-]`, for which the LD50 is 25 mg/kg. For `CS(=O)(=O)OCCCN(CCCOS(C)(=O)=O)C1CCCCC1`, the LD50 is 375 mg/kg.

Take `COc1ccccc1S`: the LD50 was 1740 mg/kg.

Consider `CC(N)=S`, for which the LD50 was 301 mg/kg. Turning to `CCCCN(COC(C)=O)N=O`, the LD50 is 1500 mg/kg. With `ClCC=CCCl`, the LD50 is 89 mg/kg. Take `COP(=S)(OC)Oc1cnc2ccccc2n1`: the LD50 was 900 mg/kg.

Regarding `CCCSc1cc(Oc2ccc([N+](=O)[O-])cc2)ccc1Cl`, the LD50 is 1130 mg/kg. Take `CCCOC(=O)C1COc2ccccc2O1` (configuration not stated): the LD50 is 7450 mg/kg. As for `COc1ccc([C@@H]2Sc3ccccc3N(CCN(C)C)C(=O)[C@@H]2OC(C)=O)cc1`, the LD50 was 560 mg/kg. On to `ClC(Cl)(Br)CBr`, for which the LD50 is 205 mg/kg. In the case of `CN(C)C(=O)Nc1cccc(OC(F)(F)C(F)F)c1`, the LD50 was 1260 mg/kg. In the case of `CCCCN1C(=O)c2ccc([N+](=O)[O-])cc2C1=O`, the LD50 is 1340 mg/kg. For the compound `C=C(Cl)C#N`, the 50% lethal dose (LD50) was 25 mg/kg. Regarding `CC(C)(C)NCC(O)COc1cccc2c1C[C@H](O)[C@H](O)C2` (some centres not stated), the LD50 was 5300 mg/kg. On to `C=Cc1ccc(OC(C)=O)cc1`, for which the LD50 is 1500 mg/kg. For the compound `NCC(c1cccs1)N1CCCCC1` (configuration not stated), the LD50 was 1480 mg/kg.

As for `CCC(=O)OC(CC)(c1ccccc1)C1CCN(C)C1` (configuration not stated), the LD50 was 460 mg/kg. Consider `NC(=O)c1cc2cc(CN3CCCCC3)ccc2o1`, for which the LD50 was 250 mg/kg. As for `FC(F)(F)c1nc2ccc(I)cc2[nH]1`, the LD50 is 96 mg/kg. Take `Cc1cccc(NC(=S)N(C)C)c1`: the LD50 was 2200 mg/kg. In the case of `C=CCN1CC[C@]23c4c5ccc(O)c4O[C@H]2[C@@H](O)C=C[C@H]3[C@H]1C5`, the LD50 is 1150 mg/kg. Take `CNCCc1ccccn1`: the LD50 is 3030 mg/kg and 6110 mg/kg. Take `CCCSCSP(=S)(OCC)OCC`: the LD50 is 2.8 mg/kg. Turning to `CC(CN1CCN(CCOCCO)CC1)CN1c2ccccc2Sc2ccc(Cl)cc21` (configuration not stated), the LD50 was 400 mg/kg.

Regarding `CCCOC=O`, the LD50 was 3980 mg/kg. With `ClCC(Cl)=C(Cl)Cl`, the LD50 is 350 mg/kg. As to `CC(=O)O[C@@H]1C[C@]2(O)[C@H](CC[C@]3(C)[C@@H](c4ccc(=O)oc4)CC[C@@]32O)[C@@]2(C)CC[C@H](O[C@@H]3O[C@H](CO)[C@@H](O)[C@H](O)[C@H]3O)C=C12`, the LD50 was 0.43 mg/kg. As to `C1=Cc2cccc(OCC3CNCCO3)c2C1` (configuration not stated), the LD50 was 502 mg/kg. For `CS(=O)(=O)c1ccc2c(c1)N(CCCN1CCC(C(N)=O)CC1)c1ccccc1S2`, the LD50 is 976 mg/kg.

As for `CCOP(=O)(SC(C)CC)N1CCSC1=O` (configuration not stated), the LD50 was 57 mg/kg. Consider `CC(C)COC(=O)COc1ccc(Cl)cc1Cl`, for which the LD50 was 300 mg/kg. Take `CC(=O)N(CC(C)C(=O)O)c1c(I)cc(I)c(N)c1I` (configuration not stated): the LD50 was 7100 mg/kg. In the case of `C#CCN1CCC2=C(C1)c1c(OC(=O)CCCN3CCCCC3)cc(C(C)C(C)CCCCC)cc1OC2(C)C` (configuration not stated), the LD50 was 130 mg/kg. With `CNC(=O)Oc1cccc2c(O)cccc12`, the LD50 was 297 mg/kg. As for `Cc1ccc(Cl)c(Nc2ccccc2C(=O)O)c1Cl`, the LD50 is 100 mg/kg. For `CCCCCCCC[N+](CC)(CC)CCOC(=O)C(C1CCCC1)C1CCCC1`, the LD50 is 1200 mg/kg. With `CCN(CC)CCO`, the median lethal dose (LD50) is 1300 mg/kg. With `CCC(CO)NC(=O)C1C=C2c3cccc4c3c(cn4C)CC2N(C)C1` (configuration not stated), the median lethal dose (LD50) was 200 mg/kg. `NNC(=O)CCCCCCCCC(=O)NN`: the LD50 is 2500 mg/kg. In the case of `O=COCc1ccccc1`, the LD50 was 1400 mg/kg. With `CCOC(=O)/C=C/C(=O)OCC`, the LD50 is 1780 mg/kg. For `CCCCNC(=O)NS(=O)(=O)c1ccc(N)cc1`, the 50% lethal dose (LD50) is 4400 mg/kg. As for `C=C1/C(=C\C=C2/CCC[C@]3(C)[C@@H]([C@H](C)/C=C/[C@H](C)C(C)C)CC[C@@H]23)C[C@@H](O)C[C@@H]1O`, the LD50 was 3.5 mg/kg. On to `CNC(=O)Oc1ccc2c(c1)[C@]1(C)CCN(C)[C@@H]1N2C`, for which the LD50 is 4.5 mg/kg. For the compound `CN(C)CCN`, the LD50 was 1140 mg/kg. Regarding `CSP(=O)(SC)SC`, the LD50 is 30 mg/kg. Turning to `c1cc(OCC2CO2)ccc1CC1CO1` (configuration not stated), the LD50 is 4290 mg/kg. On to `Cc1ccc(C(=O)c2cccc3c2CCC3C(=O)O)cc1` (configuration not stated), for which the LD50 is 244 mg/kg.

With `COS(=O)(=O)OC`, the 50% lethal dose (LD50) was 205 mg/kg. As for `CCOC(=O)c1ccccc1O`, the median lethal dose (LD50) was 1320 mg/kg. Regarding `CN(N=O)C(=O)C(=O)N(C)N=O`, the LD50 is 96 mg/kg.

With `C=CCC1(CCSCCCC)C(=O)N=C(S)NC1=O` (configuration not stated), the LD50 is 1450 mg/kg.

As to `CC(C)(C#N)/N=N/C(C)(C)C#N`, the LD50 is 100 mg/kg. Consider `Nc1ncnc2[nH]cnc12`, for which the LD50 was 227 mg/kg.

On to `CCOC(=S)c1ccc(Cl)cc1`, for which the LD50 was 995 mg/kg. On to `FC(Cl)C(F)(Cl)Cl` (configuration not stated), for which the LD50 is 7800 mg/kg.
